Measured values: ChEMBL document CHEMBL4265943, “Design and synthesis of potent dual inhibitors of JAK2 and HDAC based on fusing the pharmacophores of XL019 and vorinostat” (Eur J Med Chem, 2018)

Tests used:
[1] = tested on: HEL 92.1.7; assay: cells; assay type: functional, cell-based; conditions: Homo sapiens, HEL 92.1.7, 72 h
Description: Antiproliferative activity against human HEL 92.1.7 cells after 72 hrs by MTT assay

[2] = Antiproliferative activity against human XG6 cells after 72 hrs by MTT assay; assay type: functional, cell-based; conditions: XG6, 72 h
[3] = molecular target: T1, Protein deacetylase HDAC6 (Homo sapiens, UniProt Q9UBN7); assay: Inhibition of HDAC6 (unknown origin) using Arg-His-Lys-Lys(Ac) as substrate preincubated with enzyme followed by substrate addition for 2 hrs and measured for 1.5 hrs at 15 mins time interval by fluorescence assay
T1 sequence (Q9UBN7 whole entry): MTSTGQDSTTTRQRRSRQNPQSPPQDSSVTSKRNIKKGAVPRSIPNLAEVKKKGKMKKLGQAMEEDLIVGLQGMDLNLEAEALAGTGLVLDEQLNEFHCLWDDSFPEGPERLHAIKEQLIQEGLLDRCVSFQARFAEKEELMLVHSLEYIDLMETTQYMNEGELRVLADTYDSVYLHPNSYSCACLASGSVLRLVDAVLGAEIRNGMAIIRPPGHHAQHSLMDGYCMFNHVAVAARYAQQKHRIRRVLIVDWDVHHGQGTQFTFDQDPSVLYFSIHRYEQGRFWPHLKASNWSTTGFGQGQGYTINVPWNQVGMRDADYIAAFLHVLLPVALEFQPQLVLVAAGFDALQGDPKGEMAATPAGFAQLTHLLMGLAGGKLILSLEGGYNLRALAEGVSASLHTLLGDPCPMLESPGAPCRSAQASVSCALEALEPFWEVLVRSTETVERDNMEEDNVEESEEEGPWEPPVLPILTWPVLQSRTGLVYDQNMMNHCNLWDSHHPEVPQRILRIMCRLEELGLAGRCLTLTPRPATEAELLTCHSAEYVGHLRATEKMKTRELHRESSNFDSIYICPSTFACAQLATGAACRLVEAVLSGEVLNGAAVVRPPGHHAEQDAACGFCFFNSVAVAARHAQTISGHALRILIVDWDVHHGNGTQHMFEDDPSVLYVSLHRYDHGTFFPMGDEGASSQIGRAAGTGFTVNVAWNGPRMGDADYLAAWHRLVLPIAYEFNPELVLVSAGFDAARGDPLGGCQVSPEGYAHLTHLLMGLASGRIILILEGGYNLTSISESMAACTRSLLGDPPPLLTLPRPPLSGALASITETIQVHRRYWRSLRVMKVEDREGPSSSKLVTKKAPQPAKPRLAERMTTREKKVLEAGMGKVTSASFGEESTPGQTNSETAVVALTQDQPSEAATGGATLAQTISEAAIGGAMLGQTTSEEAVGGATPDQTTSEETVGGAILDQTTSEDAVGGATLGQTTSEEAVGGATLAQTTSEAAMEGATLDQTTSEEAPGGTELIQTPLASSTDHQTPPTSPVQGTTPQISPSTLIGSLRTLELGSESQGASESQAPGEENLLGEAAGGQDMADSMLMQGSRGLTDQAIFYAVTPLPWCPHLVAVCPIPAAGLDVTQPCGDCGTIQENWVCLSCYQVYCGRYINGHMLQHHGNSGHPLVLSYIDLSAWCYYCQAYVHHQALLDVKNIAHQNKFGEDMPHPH

[4] = tested on: PC-3; assay: Antiproliferative activity against human PC3 cells after 72 hrs by MTT assay; assay type: functional, cell-based; conditions: PC-3, 72 h
[5] = tested on: MCF7; assay: Antiproliferative activity against human MCF7 cells after 72 hrs by MTT assay; assay type: functional, cell-based; conditions: MCF7, 72 h
[6] = Selectivity index, ratio of CC50 for mouse TAMH cells to IC50 for human HEL 92.1.7 cells; assay type: toxicity; conditions: TAMH cells (CC50) and HEL 92.1.7 cells (IC50)
[7] = Selectivity index, ratio of CC50 for mouse TAMH cells to IC50 for human HCT116 cells; assay type: toxicity; conditions: TAMH cells (CC50) and HCT116 cells (IC50)
[8] = tested on: MDA-MB-231; assay: Antiproliferative activity against human MDA-MB-231 cells after 72 hrs by MTT assay; assay type: functional, cell-based; conditions: MDA-MB-231, 72 h
[9] = tested on: KMS-12-BM; assay: Antiproliferative activity against human KMS-12-BM cells after 72 hrs by MTT assay; assay type: functional, cell-based
[10] = Antiproliferative activity against mouse TAMH cells after 72 hrs by MTT assay; assay type: cell-based
[11] = molecular target: T2, Tyrosine-protein kinase JAK2 (Homo sapiens, UniProt O60674); assay: Inhibition of human JAK2 using poly(Glu:Tyr)(4:1) as substrate preincubated for 20 mins followed by [gamma33P]ATP addition measured after 120 mins by ion exchange filter paper method
[12] = Selectivity index, ratio of CC50 for mouse TAMH cells to IC50 for human MDA-MB-231 cells; assay type: toxicity; conditions: TAMH cells (CC50) and MDA-MB-231 cells (IC50)
[13] = Selectivity index, ratio of CC50 for mouse TAMH cells to IC50 for human Jurkat cells; assay type: toxicity; conditions: TAMH cells (CC50) and Jurkat cells (IC50)
[14] = Antiproliferative activity against human AC10 cells after 72 hrs by MTT assay; assay type: cell-based
[15] = Selectivity index, ratio of CC50 for human AC10 cells to IC50 for human MDA-MB-231 cells; assay type: toxicity; conditions: AC10 cells (CC50) and MDA-MB-231 cells (IC50)
[16] = Selectivity index, ratio of CC50 for mouse TAMH cells to IC50 for human KMS-12-BM cells; assay type: toxicity; conditions: TAMH cells (CC50) and KMS-12-BM cells (IC50)
[17] = Selectivity index, ratio of CC50 for mouse TAMH cells to IC50 for human MCF7 cells; assay type: toxicity; conditions: TAMH cells (CC50) and MCF7 cells (IC50)
[18] = Selectivity index, ratio of CC50 for human AC10 cells to IC50 for human MCF7 cells; assay type: toxicity; conditions: AC10 cells (CC50) and MCF7 cells (IC50)
[19] = Selectivity index, ratio of CC50 for human AC10 cells to IC50 for human KMS-12-BM cells; assay type: toxicity; conditions: AC10 cells (CC50) and KMS-12-BM cells (IC50)
[20] = Selectivity index, ratio of CC50 for mouse TAMH cells to IC50 for human XG6 cells; assay type: toxicity; conditions: TAMH cells (CC50) and XG6 cells (IC50)
[21] = Selectivity index, ratio of CC50 for human AC10 cells to IC50 for human PC3 cells; assay type: toxicity; conditions: AC10 cells (CC50) and PC3 cells (IC50)
[22] = molecular target: Histone deacetylase 1 (Homo sapiens, UniProt Q13547); assay: Inhibition of HDAC1 (unknown origin) using Arg-His-Lys-Lys(Ac) as substrate preincubated with enzyme followed by substrate addition for 2 hrs and measured for 1.5 hrs at 15 mins time interval by fluorescence assay
[23] = tested on: Jurkat; assay: Antiproliferative activity against human Jurkat cells after 72 hrs by MTT assay; assay type: functional, cell-based
[24] = Selectivity index, ratio of CC50 for human AC10 cells to IC50 for human HEL 92.1.7 cells; assay type: toxicity; conditions: AC10 cells (CC50) and HEL 92.1.7 cells (IC50)
[25] = tested on: HCT-116; assay: Antiproliferative activity against human HCT116 cells after 72 hrs by MTT assay; assay type: functional, cell-based; conditions: HCT-116, 72 h
[26] = Selectivity index, ratio of CC50 for human AC10 cells to IC50 for human XG6 cells; assay type: toxicity; conditions: AC10 cells (CC50) and XG6 cells (IC50)
[27] = Selectivity index, ratio of CC50 for mouse TAMH cells to IC50 for human PC3 cells; assay type: toxicity; conditions: TAMH cells (CC50) and PC3 cells (IC50)
[28] = Selectivity index, ratio of CC50 for human AC10 cells to IC50 for human HCT116 cells; assay type: toxicity; conditions: AC10 cells (CC50) and HCT116 cells (IC50)
[29] = Selectivity index, ratio of CC50 for human AC10 cells to IC50 for human Jurkat cells; assay type: toxicity; conditions: AC10 cells (CC50) and Jurkat cells (IC50)
[30] = molecular target: T2, Tyrosine-protein kinase JAK2; assay: Inhibition of human JAK2 at 10 uM using poly(Glu:Tyr)(4:1) as substrate preincubated for 20 mins followed by [gamma33P]ATP addition measured after 120 mins by ion exchange filter paper method relative to control

Histone deacetylase 1, sequence (Q13547 whole entry): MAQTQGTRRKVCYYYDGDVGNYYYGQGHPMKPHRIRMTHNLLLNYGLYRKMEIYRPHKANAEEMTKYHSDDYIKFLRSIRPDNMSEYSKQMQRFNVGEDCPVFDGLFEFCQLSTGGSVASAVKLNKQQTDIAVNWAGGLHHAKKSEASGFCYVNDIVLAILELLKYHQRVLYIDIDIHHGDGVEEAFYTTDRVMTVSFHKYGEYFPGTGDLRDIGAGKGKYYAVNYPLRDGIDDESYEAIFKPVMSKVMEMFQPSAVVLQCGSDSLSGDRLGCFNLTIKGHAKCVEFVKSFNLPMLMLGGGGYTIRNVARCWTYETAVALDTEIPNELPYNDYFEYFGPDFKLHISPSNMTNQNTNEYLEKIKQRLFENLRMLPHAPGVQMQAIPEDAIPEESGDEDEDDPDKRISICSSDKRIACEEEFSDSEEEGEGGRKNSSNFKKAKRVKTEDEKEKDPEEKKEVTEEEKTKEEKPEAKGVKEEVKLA
T2 sequence (O60674 whole entry): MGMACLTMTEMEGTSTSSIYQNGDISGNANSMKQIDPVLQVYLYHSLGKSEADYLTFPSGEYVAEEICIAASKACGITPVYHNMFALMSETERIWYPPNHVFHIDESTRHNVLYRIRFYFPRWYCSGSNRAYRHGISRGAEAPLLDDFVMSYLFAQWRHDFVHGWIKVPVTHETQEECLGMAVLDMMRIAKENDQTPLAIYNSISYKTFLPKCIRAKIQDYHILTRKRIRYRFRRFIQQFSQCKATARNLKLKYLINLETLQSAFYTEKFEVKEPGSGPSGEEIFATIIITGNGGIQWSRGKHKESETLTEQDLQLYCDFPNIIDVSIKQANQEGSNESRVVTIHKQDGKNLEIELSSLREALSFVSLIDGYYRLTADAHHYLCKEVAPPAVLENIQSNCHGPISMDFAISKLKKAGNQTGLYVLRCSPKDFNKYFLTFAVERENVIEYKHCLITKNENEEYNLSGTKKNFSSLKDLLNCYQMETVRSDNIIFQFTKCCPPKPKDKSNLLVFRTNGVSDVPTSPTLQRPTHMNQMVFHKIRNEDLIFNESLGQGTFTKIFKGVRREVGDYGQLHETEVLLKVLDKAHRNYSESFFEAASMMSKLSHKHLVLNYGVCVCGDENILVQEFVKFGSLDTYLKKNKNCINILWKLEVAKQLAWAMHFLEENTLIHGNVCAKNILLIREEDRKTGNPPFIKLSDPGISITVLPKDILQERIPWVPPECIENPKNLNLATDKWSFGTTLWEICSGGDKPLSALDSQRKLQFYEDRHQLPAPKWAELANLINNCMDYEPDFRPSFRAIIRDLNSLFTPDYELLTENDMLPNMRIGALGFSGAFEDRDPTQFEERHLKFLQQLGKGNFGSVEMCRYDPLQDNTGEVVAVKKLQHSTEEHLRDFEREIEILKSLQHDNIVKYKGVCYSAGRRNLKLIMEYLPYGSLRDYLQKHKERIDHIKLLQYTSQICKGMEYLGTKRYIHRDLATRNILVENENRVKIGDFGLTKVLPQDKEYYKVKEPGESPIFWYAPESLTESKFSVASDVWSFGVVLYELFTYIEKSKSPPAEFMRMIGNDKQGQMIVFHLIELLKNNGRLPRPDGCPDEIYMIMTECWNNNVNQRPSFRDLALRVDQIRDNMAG

| Structure (SMILES) | IC50 [1] [µM] | IC50 [2] [µM] | IC50 [3] [µM] | IC50 [4] [µM] | IC50 [5] [µM] | selectivity ratio [6] | selectivity ratio [7] | IC50 [8] [µM] | IC50 [9] [µM] | CC50 at 72 h [10] [µM] | IC50 [11] [µM] | selectivity ratio [12] | selectivity ratio [13] | CC50 at 72 h [14] [µM] | selectivity ratio [15] | selectivity ratio [16] | selectivity ratio [17] | IC50 [22] [µM] | IC50 [23] [µM] | IC50 [25] [µM] | also measured |
| --- | --- | --- | --- | --- | --- | --- | --- | --- | --- | --- | --- | --- | --- | --- | --- | --- | --- | --- | --- | --- | --- |
| CC(=O)Nc1ccc(-c2ccnc(Nc3ccc(OCCCCCCC(=O)NO)cc3)n2)cc1 | 1.51 | 2.08 | 0.003 | 1.47 | 0.81 | 2.42 | 3.7 | 1.56 | 0.1 | 3.66 | 0.023 | 2.35 | 2.07 | 2.39 | 1.53 | 36.6 | 4.52 | 0.145 | 1.77 | 0.99 | selectivity ratio [18]: 2.95; selectivity ratio [19]: 23.9; selectivity ratio [20]: 1.76; selectivity ratio [21]: 1.63; selectivity ratio [24]: 1.58; selectivity ratio [26]: 1.15; selectivity ratio [27]: 2.49; selectivity ratio [28]: 2.41; selectivity ratio [29]: 0.89 |
| CC(=O)Nc1ccc(-c2ccnc(NCc3ccccc3)n2)cc1 |  |  |  |  |  |  |  |  |  |  |  |  |  |  |  |  |  |  |  |  | inhibition [30]: 3.85% |
| CC(=O)Nc1ccc(-c2ccnc(Nc3cccc(OCCCCCCC(=O)NO)c3)n2)cc1 | 0.97 | 4.69 | 0.0018 | 1.89 | 2.42 | 7.24 | 10.6 | 1.76 | 0.35 | 7.02 | 0.0036 | 3.99 | 6.65 | 2.99 | 1.7 | 20.1 | 2.9 | 0.083 | 1.06 | 0.66 | selectivity ratio [18]: 1.24; selectivity ratio [19]: 8.54; selectivity ratio [20]: 1.5; selectivity ratio [21]: 1.58; selectivity ratio [24]: 3.08; selectivity ratio [26]: 0.64; selectivity ratio [27]: 3.71; selectivity ratio [28]: 4.53; selectivity ratio [29]: 2.92 |
| CC(=O)Nc1ccc(-c2ccnc(Nc3ccccc3)n2)cc1 |  |  |  |  |  |  |  |  |  |  | 0.0274 |  |  |  |  |  |  |  |  |  | inhibition [30]: 96.4% |
| CC(=O)Nc1ccc(-c2nc(Nc3cccc(OCCCCCCCC(=O)NO)c3)ncc2C)cc1 | 8.96 | 8.3 | 0.0097 | 32.8 | 30.8 | 1.02 | 0.5 | 11.4 | 0.54 | 9.14 | 0.00293 | 0.8 | 0.91 | 20.1 to 20.7 | 1.81 | 17 | 0.3 | 4.58 | 9.99 | 18.4 | selectivity ratio [18]: 0.67; selectivity ratio [19]: 38.3; selectivity ratio [20]: 1.1; selectivity ratio [21]: 0.63; selectivity ratio [24]: 2.31; selectivity ratio [26]: 2.49; selectivity ratio [27]: 0.28; selectivity ratio [28]: 1.12; selectivity ratio [29]: 0.23 |
| CC(=O)Nc1ccc(-c2ccnc(Nc3cccc(OCCCCCCCC(=O)NO)c3)n2)cc1 | 3.34 | 7.22 | 0.0067 | 1.64 | 1.22 | 0.83 | 1.83 | 3.61 | 0.68 | 2.77 | 0.017 | 0.77 | < 0.28 | > 100 | > 27.7 | 4.07 | 2.27 | 1.04 | > 10 | 1.51 | selectivity ratio [18]: > 82; selectivity ratio [19]: > 147; selectivity ratio [20]: 0.38; selectivity ratio [21]: > 61; selectivity ratio [24]: > 30; selectivity ratio [26]: > 13.9; selectivity ratio [27]: 1.69; selectivity ratio [28]: > 66.2; selectivity ratio [29]: 3 |
| CC(=O)Nc1ccc(-c2ccnc(Nc3ccc(OCCCCCC(=O)NO)cc3)n2)cc1 | 1.36 | 1.07 | 0.0013 | 1.51 | 2.01 |  |  | 1.02 | 0.07 | 7.39 |  |  |  | 5.74 |  |  |  | 0.089 | 1.03 | 1.15 |  |
| CC(=O)Nc1ccc(-c2ccnc(NCCc3ccccc3)n2)cc1 |  |  |  |  |  |  |  |  |  |  |  |  |  |  |  |  |  |  |  |  | inhibition [30]: 6.22% |
| CC(=O)Nc1ccc(-c2ccnc(Nc3cccc(OCCCCCC(=O)NO)c3)n2)cc1 | 1.83 | 3.7 | 0.0024 | 1.66 | 2.55 | 4.85 | 11.2 | 1.24 | 0.2 | 8.86 | 0.0034 | 7.15 | 7.45 | 2.93 | 2.36 | 44.3 | 3.47 | 0.637 | 1.19 | 0.79 | selectivity ratio [18]: 1.15; selectivity ratio [19]: 14.7; selectivity ratio [20]: 2.39; selectivity ratio [21]: 1.77; selectivity ratio [24]: 1.61; selectivity ratio [26]: 0.79; selectivity ratio [27]: 5.34; selectivity ratio [28]: 3.71; selectivity ratio [29]: 1.35 |
| CC(=O)Nc1ccc(-c2ccnc(Nc3ccc(OCCCCCCCC(=O)NO)cc3)n2)cc1 | 3.92 | 10.2 | 0.014 | 4.73 | 5.53 |  |  | 5.33 | 1.96 | 9.33 |  |  |  | 3.5 |  |  |  | 1.7 | 3.48 | 1.8 |  |
